Measurements published in patent US20250206721A1, “Prostaglandin Receptor EP2 Antagonists, Derivatives, and Uses Related Thereto” (Emory University, priority 2019, published 2025).
≈ marks a conversion by molar mass, not a printed value. Structures can show the parent of a compound that is named as a salt. Where two headings read alike, the source gives them in different places. Values belong to the compound of their own block, whether it stands above or below them.

Tests used:
[1] = Metabolite investigation in mouse liver microsomes; type: in vitro ADME; conditions: 2a after 5 minutes; 3 after 20 minutes
[2] = Mouse liver microsomal (MLM) stability
physchem [3] = conditions: pH 2, simulated gastric fluid, kinetic from dmso stock
[4] = Kinetic aqueous solubility in PBS by nephelometry; conditions: for Aqueous Solubility: PBS buffer (pH 7.4) with 1% DMSO, nephelometry
human EP4 receptor = human EP4 receptor (Homo sapiens, UniProt P35408); test: Cell-based cAMP TR-FRET assay on EP4 (agonist PGE2); conditions: selectivity index EP4 KB/EP2 KB, fold
human EP4 receptor, sequence (P35408 whole entry): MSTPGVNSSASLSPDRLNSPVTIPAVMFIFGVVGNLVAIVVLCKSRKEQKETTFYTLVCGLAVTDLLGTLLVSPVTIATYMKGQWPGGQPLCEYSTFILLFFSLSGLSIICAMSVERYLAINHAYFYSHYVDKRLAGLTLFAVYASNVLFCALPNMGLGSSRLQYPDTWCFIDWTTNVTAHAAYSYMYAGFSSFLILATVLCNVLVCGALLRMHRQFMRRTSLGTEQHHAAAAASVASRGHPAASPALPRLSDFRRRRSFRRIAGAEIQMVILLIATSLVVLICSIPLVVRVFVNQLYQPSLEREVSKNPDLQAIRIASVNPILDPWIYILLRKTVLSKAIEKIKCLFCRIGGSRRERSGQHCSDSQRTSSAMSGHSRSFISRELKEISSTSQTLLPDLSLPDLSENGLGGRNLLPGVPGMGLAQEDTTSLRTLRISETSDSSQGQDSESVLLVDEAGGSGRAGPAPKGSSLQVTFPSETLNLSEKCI

human IP receptor = human IP receptor (Homo sapiens, UniProt P43119); test: Cell-based cAMP TR-FRET assay on IP (agonist iloprost); conditions: selectivity index IP KB/EP2 KB, fold
human IP receptor, sequence (P43119 whole entry): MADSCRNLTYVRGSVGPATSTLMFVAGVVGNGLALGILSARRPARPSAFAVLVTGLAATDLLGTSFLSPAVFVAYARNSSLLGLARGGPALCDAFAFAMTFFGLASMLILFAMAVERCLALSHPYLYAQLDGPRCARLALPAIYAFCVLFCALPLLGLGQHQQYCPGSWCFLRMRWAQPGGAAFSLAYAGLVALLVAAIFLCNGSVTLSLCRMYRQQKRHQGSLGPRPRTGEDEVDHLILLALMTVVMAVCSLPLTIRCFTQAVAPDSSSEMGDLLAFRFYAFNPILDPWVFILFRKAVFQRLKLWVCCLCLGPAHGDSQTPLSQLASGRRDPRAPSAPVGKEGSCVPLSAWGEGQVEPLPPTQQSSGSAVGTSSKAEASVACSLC

human DP1 receptor = biological target: T1, human DP1 receptor (Homo sapiens, UniProt Q13258); conditions: selectivity index DP1 KB/EP2 KB, fold
T1 sequence (Q13258 1-359): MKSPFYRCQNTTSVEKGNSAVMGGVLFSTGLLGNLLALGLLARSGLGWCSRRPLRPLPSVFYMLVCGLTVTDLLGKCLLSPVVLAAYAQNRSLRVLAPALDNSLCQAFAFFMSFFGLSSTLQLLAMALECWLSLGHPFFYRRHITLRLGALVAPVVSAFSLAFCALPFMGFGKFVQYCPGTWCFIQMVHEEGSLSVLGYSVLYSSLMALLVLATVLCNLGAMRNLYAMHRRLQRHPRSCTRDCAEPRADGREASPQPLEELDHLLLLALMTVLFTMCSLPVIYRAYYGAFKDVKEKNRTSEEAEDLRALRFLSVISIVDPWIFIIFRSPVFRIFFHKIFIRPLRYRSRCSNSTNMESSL

[5] = mouse
human EP2 receptor = biological target: T2, human EP2 receptor (Homo sapiens, UniProt P43116); test: Cell-based cAMP TR-FRET assay, Schild KB on EP2; conditions: for Kb: Schild KB, agonist PGE2, antagonist concentration 1 μM, C6G cells expressing human EP2
T2 construct: expressed in transfected cells
T2 sequence (P43116 whole entry): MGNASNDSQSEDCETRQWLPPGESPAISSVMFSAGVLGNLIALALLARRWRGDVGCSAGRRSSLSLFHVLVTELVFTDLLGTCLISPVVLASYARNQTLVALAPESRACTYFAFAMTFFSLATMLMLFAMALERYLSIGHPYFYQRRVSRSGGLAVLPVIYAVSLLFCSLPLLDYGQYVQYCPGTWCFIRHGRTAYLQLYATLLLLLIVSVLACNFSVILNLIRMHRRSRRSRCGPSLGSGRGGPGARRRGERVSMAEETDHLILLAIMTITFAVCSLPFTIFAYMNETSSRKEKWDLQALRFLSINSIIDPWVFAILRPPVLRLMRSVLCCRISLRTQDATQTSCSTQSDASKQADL

C6glioma cells = conditions: rat
[6] = pH 7.4
[7] = mouse; remark: listed apart in the source
[8] = Solubility in simulated gastric fluid (SGF) by nephelometry
[9] = Thermodynamic shake flask solubility in neat water
physchem [10] = conditions: water, thermodynamic from solid
in vitro = conditions: mouse, pooled liver microsomes

- half-life (in vivo; C57BL/6, mouse, ip, 10 mg/kg): < 1 h
- solubility (physchem [3]): > 100 µM
- Aqueous Solubility [4]: 71 µM
- S.I (EP4/EP2) (human EP4 receptor): 517
- S.I (IP/EP2) (human IP receptor): 730
Compound: COc1ccccc1-c1ncc(C(=O)NCCc2c(C)[nH]c3ccccc23)cn1 [Compound 14a, 2-(2-Methoxyphenyl)-N-(2-(2-methyl-1H-indol-3-yl)ethyl)pyrimidine-5-carboxamide]

- Aqueous Solubility [4]: 27 µM
- S.I. (DP1/EP2) (human DP1 receptor): >900
- S.I (IP/EP2) (human IP receptor): >900
Compound: Cc1[nH]c2ccccc2c1CCNC(=O)c1cnc(Nc2ccccn2)nc1 [Compound 20a, N-(2-(2-Methyl-1H-indol-3-yl)ethyl)-2-(pyridin-2-ylamino)pyrimidine-5-carboxamide]

- MLM T½ ([2]; 1 μM compound, 0.125 mg/mL liver microsomes, NADPH): 8 min
- Aqueous Solubility [4]: 25 µM
Compound: Cc1ccnc(Nc2ncc(C(=O)NCCc3c(C)[nH]c4ccccc34)cn2)c1 [Compound 20b, N-(2-(2-Methyl-1H-indol-3-yl)ethyl)-2-((4-methylpyridin-2-yl)amino)pyramidine-5-carboxamide]

- stability in vivo [5]: unstable in vivo
- Aqueous Solubility [4]: 15 µM
- S.I (EP4/EP2) (human EP4 receptor): >1500
- S.I (IP/EP2) (human IP receptor): >1500
Compound: Cc1[nH]c2ccccc2c1CCNC(=O)c1cnc(Nc2cc(F)ccn2)nc1 [Compound 20c, 2-((4-Fluoropyridin-2-yl)amino)-N-(2-(2-methyl-1H-indol-3-yl)ethyl)pyrimidine-5-carboxamide]

- fold higher half-life in liver microsomes ([2]; 24i vs 20o, 20c vs 20b, 20f vs 20e): 8 fold
- Aqueous Solubility [4]: 41 µM
Compound: Cc1[nH]c2ccccc2c1CCNC(=O)c1cnc(Nc2cccc(F)n2)nc1 [Compound 20f, 2-((6-Fluoropyridin-2-yl)amino)-N-(2-(2-methyl-1H-indol-3-yl)ethyl)pyrimidine-5-carboxamide]

- Kb (human EP2 receptor): 0.0078 µM
- Aqueous Solubility [4]: 15 µM
- S.I. (DP1/EP2) (human DP1 receptor): >1280
- S.I (IP/EP2) (human IP receptor): >1280
Compound: COc1cccc(Nc2ncc(C(=O)NCCc3c(C)[nH]c4ccccc34)cn2)n1 [Compound 20h, 2-((6-Methoxypyridin-2-yl)amino)-N-(2-(2-methyl-1H-indol-3-yl)ethyl)pyrimidine-5-carboxamide]

- Kb (human EP2 receptor): 0.0017 µM
- Kp at 0.5 h (in vivo; C57BL/6, mouse): 0.4
- half-life (in vivo; mouse, ip, 20 mg/kg): 5.4 h
- solubility (physchem [3]): > 250 µM
- solubility (physchem [10]): 1100 to 1200 µg/mL (≈ 2630 to 2870 µM)
- solubility at 24 h (physchem [10]): 2640 µM (≈ 1100 µg/mL)
- half-life at 1 μM (in vitro): 0.383 h
- MLMt1/2 ([2]; 1 μM compound, 0.125 mg/mL liver microsomes (Table 7)): 23 min
- solubility ([4]; PBS with 1% DMSO, pH 7.4, aqueous buffer, kinetic from dmso stock): 150 µM (≈ 62.8 µg/mL)
Compound: Cc1cc(C)nc(Nc2ncc(C(=O)NCCc3c(C)[nH]c4c(F)cccc34)cn2)c1 [Compound 24aa, 2-((4,6-dimethylpyridin-2-yl)amino)-N-(2-(7-fluoro-2-methyl-1H-indol-3-yl)ethyl)pyrimidine-5-carboxamide]

- Kb (human EP2 receptor): 0.02 µM
- solubility (physchem [3]): > 100 µM
- S.I (IP/EP2) (human IP receptor): >500
Compound: Cc1cc(C)nc(Nc2ncc(C(=O)NCCc3c(C)[nH]c4c(F)cc(F)cc34)cn2)c1 [Compound 24c, N-(2-(5,7-Difluoro-2-methyl-1H-indol-3-yl)ethyl)-2-((4,6-dimethylpyridin-2-yl)amino)pyrimidine-5-carboxamide]

The next lines start with the compound.

Compound: Cc1[nH]c2ccccc2c1CCNC(=O)c1ccc(-c2nnn[nH]2)cc1 [Compound 3]
- metabolites after incubation in mouse liver microsomes [1]: did not produce any fragments even after 20 minutes of incubation
- half-life (in vivo; mouse, po, 10 mg/kg): > 6 h
- MLMt1/2 ([2]; 1 μM compound, 0.5 mg/mL liver microsomes (compounds 1 and 3)): >60 min

Compound: Cc1cc(C)nc(Nc2ncc(C(=O)NCCc3c(C)[nH]c4ccccc34)cn2)c1 [Compound 20o, 2-((4,6-Dimethylpyridin-2-yl)amino)-N-(2-(2-methyl-1H-indol-3-yl)ethyl)pyrimidine-5-carboxamide]
- CC50 (C6glioma cells): > 50 µM
- Aqueous Solubility [6]: 15 µM
- MLMt1/2 [7]: 17 min
- substrate of efflux pumps (MDR1-MDCK cell line): not the substrate of efflux pumps
- Permeability across MDR1-MDCK cell line, A-B (MDR1-MDCK cell line; dog): A-B: 13.2 × 10^−6 cm/s
- Permeability across MDR1-MDCK cell line, B-A (MDR1-MDCK cell line; dog): B-A: 22.2 × 10^−6 cm/s
- bioavailability (in vivo; mouse, po): 25%
- Aqueous solubility of corresponding HCl salt in SGF ([8]; HCl salt, simulated gastric fluid pH 2.0, nephelometry): >250 µM
- solubility ([8]; pH 2, simulated gastric fluid, kinetic from dmso stock): > 100 µM

Compound: Cc1cc(C)nc(Nc2ncc(C(=O)NCCc3c(C)[nH]c4ccccc34)cn2)c1 [Compound 20o.HCl, 2-((4,6-Dimethylpyridin-2-yl)amino)-N-(2-(2-methyl-1H-indol-3-yl)ethyl)pyrimidine-5-carboxamide.Hydrochloride]
- water pH after dissolving ([9]; 2 mg/mL in neat water, starting pH 6.4): 3.5
- water solubility ([9]; thermodynamic solubility in water, HCl salts): 1000 µg/mL
- solubility ([9]; water, thermodynamic from solid): 1100 to 1200 µg/mL

Compound: Cc1[nH]c2ccccc2c1CCNC(=O)c1ccc(-c2cnc[nH]2)cc1 [TG8-260, 4-(1H-imidazol-5-yl)-N-(2-(2-methyl-1H-indol-3-yl)ethyl)benzamide]
- inhibition of PGE2-induced human EP2 receptor activation (human EP2 receptor; concentration-response, in words): inhibits PGE2-induced human EP2 receptor activation in a concentration dependent manner
- S.I (EP4/EP2) (human EP4 receptor): at least 300
- S.I. (DP1/EP2) (human DP1 receptor): at least 300
- S.I (IP/EP2) (human IP receptor): at least 300

Compound: COc1cccc2c1C(=O)c1c(O)c3c(c(O)c1C2=O)C[C@@](O)(C(=O)CO)C[C@@H]3O[C@H]1C[C@H](N)[C@H](O)[C@H](C)O1 [doxorubucin, reference compound]
- CC50 (C6glioma cells): 0.9 µM
